# Reference: patent US20080312331A1, “Method of Treating Dailysis-Induced Hypotension” (SOLAPHARM, INC., priority 2005, published 2008)
# Entries after “also recorded” stand apart in the source; their conditions may differ.
# Test: Hemodialysis session in a patient with end-stage renal disease who regularly develops hypotension during dialysis (Example 2)
# Format: in vivo
# Description: A patient with end-stage renal disease is scheduled for hemodialysis at 11 AM. The patient's resting blood pressure is 130/80 mm Hg. At 10:40 AM the day of the 11 AM hemodialysis, the patient swallows a tablet comprising 16 mg of desglymidodrine (approximately equal in activity to 20 mg of midodrine).
# In a subsequent dialysis day, the patient swallows a desglymidodrine 16 mg. tablet 20 minutes before the onset of dialysis. […] Intravenous desglymidodrine is then promptly administered by a nurse by a push infusion at a dose of 8 mg.
smiles,measurement,setting,value
COc1ccc(OC)c(C(O)CN)c1 (stereo not drawn) [desglymidodrine],blood pressure after treatment of intradialytic hypotension,8 mg intravenous push infusion after hypotension developed one hour into the dialysis session,blood pressure normalizes
same,adverse symptoms during hemodialysis,"end-stage renal disease patient, 16 mg tablet swallowed 20 minutes before hemodialysis",no adverse symptoms are exhibited
same,blood pressure during hemodialysis,"end-stage renal disease patient, 16 mg tablet swallowed 20 minutes before onset of hemodialysis",blood pressure stays stable; also recorded: develops hypotension
